The test system of series [1] is primate. The settings on record: Sub-acute repeat dose toxicity; Oral; Gavage/Intubation; dose end: 10 day; group: systemic; systemic / clinical chemistry / alanine aminotransferase (alt/sgpt) / alanine aminotransferase (alt/sgpt) + systemic / clinical chemistry / ….
The subject of series [2] is rat. The settings on record: Sub-acute repeat dose toxicity; Oral; Gavage/Intubation; dose end: 10 day; group: systemic; systemic / hematology / erythrocyte (rbc) count differential / erythrocyte (rbc) + systemic / hematology / hematocrit (hct) / hematocrit (….
The test system of series [3] is primate. The settings on record: Sub-acute repeat dose toxicity, Oral, Gavage/Intubation, dose end: 30 day, group: systemic.
For series [4], the system named is primate. The settings on record: Sub-acute repeat dose toxicity; Oral; Gavage/Intubation; dose end: 4 day; group: systemic; systemic / in life observation / clinical signs / ataxia + systemic / in life observation / clinical signs / emesis + systemic / in life ….
The subject of series [5] is rat. Particulars: Sub-acute repeat dose toxicity, Oral, Gavage/Intubation, dose end: 30 day, group: systemic.
Series [6] relates to mouse. The settings on record: Carcinogenicity; b6c3f1; Oral; Feed; dose end: 80 week; group: systemic; systemic / pathology microscopic / liver / carcinoma.
Series [7] concerns rat. The settings on record: Carcinogenicity; other; Oral; Feed; dose end: 80 week; group: systemic; systemic / in life observation / body weight / body weight + systemic / in life observation / clinical signs / [other] + systemic / in life ….
In series [8] the test system is dog. The settings on record: Subchronic oral toxicity in nonrodent, beagle, Feed, dose end: 90 day, group: systemic, systemic / clinical chemistry / alanine aminotransferase (alt/sgpt) / alanine aminotransferase (alt/sgpt) + systemic / clinical chemistry / ….
Series [9] has as its system rat. Particulars: Prenatal developmental toxicity study, wistar, Oral, Gavage/Intubation, dose end: 20 GD.
The subject of series [10] is rat. The settings on record: Combined chronic toxicity/carcinogenicity, wistar, Oral, Feed, dose end: 24 month, group: systemic.
The test system of series [11] is rat. The settings on record: Multigenerational reproductive toxicity study, sprague dawley, Oral, Feed, dose end: 2 generation.
Series [12] deals with dog. Particulars: Chronic toxicity; beagle; Oral; Feed; dose end: 107 week; group: systemic; systemic / clinical chemistry / [other] / [other] + systemic / clinical chemistry / alanine aminotransferase (alt/sgpt) / alanine ….
For series [13], the system named is mouse. The settings on record: Carcinogenicity; cd1; Oral; Feed; dose end: 80 week; group: systemic; systemic / pathology microscopic / liver / hypertrophy + systemic / pathology microscopic / liver / infiltration cellular + systemic / ….
Series [14] relates to rat. The settings on record: Subchronic oral toxicity in rodents, other, Feed, dose end: 90 day, group: systemic, systemic / in life observation / body weight / body weight gain + systemic / organ weight / kidney / nos + systemic / organ weight / liver….
The test system of series [15] is rat. The settings on record: Subchronic oral toxicity in rodents, fischer, Gavage/Intubation, dose end: 13 week, group: systemic, systemic / pathology gross / spleen / enlarged + systemic / pathology microscopic / kidney / hemosiderosis + systemic / pathology ….
Series [16] relates to rat. The settings on record: Carcinogenicity, fischer, Oral, Gavage/Intubation, dose end: 103 week, group: systemic.
Series [17] deals with mouse. Particulars: Subchronic oral toxicity in rodents, b6c3f1, Gavage/Intubation, dose end: 13 week, group: systemic.
The test system of series [18] is mouse. The settings on record: Sub-acute repeat dose toxicity, b6c3f1, Oral, Gavage/Intubation, dose end: 15 day, group: systemic.
Series [19] has as its system mouse. Particulars: Carcinogenicity, b6c3f1, Oral, Gavage/Intubation, dose end: 103 week, group: systemic.
Series [20] deals with rat. The settings on record: Sub-acute repeat dose toxicity, fischer, Oral, Gavage/Intubation, dose end: 14 day, group: systemic.
Setting [21] is: systemic / clinical chemistry / cytochrome p450, nos / cytochrome p450, nos + systemic / hematology / blood clotting / blood clotting - ….
[22] abbreviates: systemic / clinical chemistry / cholesterol / cholesterol + systemic / clinical chemistry / cytochrome p450, nos / cytochrome p450, nos + ….
[23] abbreviates: systemic / clinical chemistry / urea nitrogen / urea nitrogen + systemic / hematology / neutrophils / neutrophils.
Setting [24] is: group: developmental, developmental / developmental malformation / bone / short supernumerary.
Where [25] appears, read: group: developmental, developmental / developmental malformation / bone / short supernumerary + systemic / in life observation / body weight / fetal weight.
Where [26] appears, read: group: maternal, systemic / in life observation / body weight / body weight gain + systemic / in life observation / food consumption / food consumption.
[27] abbreviates: systemic / in life observation / body weight / body weight gain + systemic / pathology microscopic / brain / vacuolization + systemic / ….
The mark [28] stands for this setting: systemic / pathology microscopic / spleen / hemosiderosis + systemic / pathology microscopic / uterus / adenocarcinoma.
[29] abbreviates: group: offspring, systemic / in life observation / body weight / offspring (pup) weight + systemic / in life observation / body weight / offspring (pup) ….
The mark [30] stands for this setting: group: parental, systemic / organ weight / kidney / absolute + systemic / organ weight / kidney / relative to body weight + systemic / organ weight / liver….
[31] abbreviates: systemic / pathology microscopic / liver / inflammation + systemic / pathology microscopic / spleen / hematopoietic cell proliferation + ….
Where [32] appears, read: systemic / pathology microscopic / spleen / hematopoietic cell proliferation + systemic / pathology microscopic / spleen / hemosiderosis.
Setting [33] is: systemic / in life observation / body weight / body weight.
[34] abbreviates: systemic / pathology gross / spleen / enlarged + systemic / pathology microscopic / spleen / hematopoietic cell proliferation + systemic / ….
The mark [35] stands for this setting: systemic / pathology gross / spleen / enlarged.
[36] abbreviates: systemic / pathology gross / spleen / enlarged + systemic / pathology microscopic / spleen / congestion + systemic / pathology microscopic….
[37] abbreviates: systemic / pathology microscopic / stomach / hyperplasia.
The mark [38] stands for this setting: systemic / pathology microscopic / stomach / squamous cell papilloma + systemic / pathology microscopic / stomach / hyperplasia.

The structures appear in SMILES notation.

As usually defined, the LOAEL is the lowest dose or exposure tested at which an adverse effect was seen. For orientation: NOAEL means the highest tested level that showed no adverse finding. As for `CC(C)(C)c1nnc2ccc(-c3ocnc3-c3cc(F)c(F)cc3F)cn12`, the LEL was 10 mg/kg/day in the series with primate [1]; 10 mg/kg/day in the series on rat [2]; 10 mg/kg/day with primate [3] (systemic / hematology / fibrinogen / fibrinogen); 100 mg/kg/day in the series on primate [4]; 3 mg/kg/day with rat [5] (setting [23]). Also, the LOAEL with primate [1], in the series with rat [2], in the series with primate [3] (setting [21]), with primate [4] and with rat [5] (setting [22]) was above 100 mg/kg/day throughout. The NEL in the series with primate [1] is below 10 mg/kg/day; in the series on rat [2] it was below 10 mg/kg/day; with primate [3] (setting [21]), 3 mg/kg/day; in the series with primate [4], below 100 mg/kg/day; in the series on rat [5] (setting [23]), below 3 mg/kg/day. For the same compound, the NOAEL with primate [1], with rat [2], in the series with primate [3] (setting [21]), in the series with primate [4] and in the series with rat [5] (setting [22]) was at least 100 mg/kg/day throughout.

Turning to `Nc1cc(Cl)cc(C(=O)O)c1Cl` [Chloramben], in the series on mouse [6], the LEL was determined as 1500 mg/kg/day, the LOAEL is above 3000 mg/kg/day, the NEL was below 1500 mg/kg/day and the NOAEL is at least 3000 mg/kg/day. Besides, in the series on rat [7], the LEL was 1000 mg/kg/day, the LOAEL is above 1000 mg/kg/day, the NEL was found to be 500 mg/kg/day and the NOAEL is at least 1000 mg/kg/day.

Turning to `Nc1c(Cl)cc([N+](=O)[O-])cc1Cl` [Dicloran], the LEL with dog [8] turned out to be 75 mg/kg/day; in the series with rat [9] (setting [24]) it was 50 mg/kg/day; in the series on rat [9] (setting [26]), 50 mg/kg/day; in the series on rat [10] (setting [28]) it was 3.7 mg/kg/day; in the series with rat [11] (setting [29]) it was 87 mg/kg/day; in the series on rat [11] (setting [30]), 87 mg/kg/day. For the same compound, the LEL was found to be 75 mg/kg/day in the series with dog [12], 86.5 mg/kg/day with mouse [13] and 150 mg/kg/day with rat [14]. In addition, the LOAEL was determined as 75 mg/kg/day with dog [8]; 100 mg/kg/day with rat [9] (setting [25]); 50 mg/kg/day in the series on rat [9] (setting [26]); 71 mg/kg/day in the series on rat [10] (setting [27]); 87 mg/kg/day in the series on rat [11] (setting [29]); 87 mg/kg/day in the series with rat [11] (setting [30]). For the same compound, the LOAEL in the series on dog [12] was 75 mg/kg/day; with mouse [13] it was 86.5 mg/kg/day; in the series on rat [14], 150 mg/kg/day. Moreover, the NEL in the series on dog [8] was 2.5 mg/kg/day; in the series on rat [9] (setting [24]), below 50 mg/kg/day; in the series with rat [9] (setting [26]), below 50 mg/kg/day; in the series on rat [10] (setting [28]), below 3.7 mg/kg/day; in the series with rat [11] (setting [29]), 16.9 mg/kg/day; with rat [11] (group: parental, systemic / in life observation / clinical signs / discharge on cageboard), 16.9 mg/kg/day. Further, the NEL with dog [12] was 2.5 mg/kg/day; with mouse [13], 24.5 mg/kg/day; in the series with rat [14], 5 mg/kg/day. For the same compound, the NOAEL was 2.5 mg/kg/day with dog [8]; 50 mg/kg/day in the series with rat [9] (setting [25]); below 50 mg/kg/day in the series on rat [9] (setting [26]); 11.3 mg/kg/day in the series on rat [10] (setting [27]); 16.9 mg/kg/day with rat [11] (setting [29]); 16.9 mg/kg/day in the series on rat [11] (setting [30]). Also, the NOAEL in the series with dog [12] is 2.5 mg/kg/day; in the series with mouse [13] it was 24.5 mg/kg/day; in the series with rat [14], 5 mg/kg/day.

Turning to `CN(C)c1ccccc1` [N,N-Dimethylaniline], the LEL was 31 mg/kg/day with rat [15]; 3 mg/kg/day in the series with rat [16] (setting [32]); 31 mg/kg/day with mouse [17] (setting [33]); 188 mg/kg/day in the series with mouse [18] (setting [35]); 15 mg/kg/day in the series with mouse [19] (setting [37]); 94 mg/kg/day in the series with rat [20] (setting [35]). Also, the LOAEL in the series with rat [15] was 31 mg/kg/day; in the series on rat [16] (setting [31]), 30 mg/kg/day; in the series with mouse [17] (setting [34]) it was 62 mg/kg/day; in the series with mouse [18] (setting [36]) it was 375 mg/kg/day; in the series on mouse [19] (setting [38]), above 30 mg/kg/day; in the series on rat [20] (setting [34]), 375 mg/kg/day. Further, the NEL in the series with rat [15] is below 31 mg/kg/day; with rat [16] (setting [32]), below 3 mg/kg/day; in the series with mouse [17] (setting [33]), below 31 mg/kg/day; with mouse [18] (setting [36]), 94 mg/kg/day; with mouse [19] (setting [37]) it was below 15 mg/kg/day; with rat [20] (setting [35]), below 94 mg/kg/day. In addition, the NOAEL in the series with rat [15] is below 31 mg/kg/day; with rat [16] (setting [31]), 3 mg/kg/day; in the series on mouse [17] (setting [34]), 31 mg/kg/day; in the series with mouse [18] (setting [36]) it was 188 mg/kg/day; with mouse [19] (setting [38]), at least 30 mg/kg/day; with rat [20] (setting [34]) it was 188 mg/kg/day.

(Values after EPA's ToxRefDB 2.)
